Source: US20220380378A1 (ESSA Pharma, Inc., priority 2021, published 2022)
pIC50: −log10 of the molar value.

How the values were obtained:
[1] = Microsomal stability assay, liver microsome half-life (dog); type: in vitro ADME; conditions: pH 7.4; dog liver microsomes 0.5 mg/mL, 1 μM compound, 37° C.; read-out: Liver microsome T1/2 Dog
From the text: (§1) Microsomal Stability Assay: Microsomal stability assay is a widely used in vitro model to characterize the metabolic conversion by phase I enzymes, such as cytochrome P450 (CYP) enzymes. Since metabolism is known to be highly variable in different species, microsomal stability assay is commonly run in multiple species. Metabolic stability of testing compound can be evaluated using human, rat, mouse, or other animal liver or intestine microsomes to predict intrinsic clearance.
(§2) The assay was carried out in 96-well microtiter plates at 37° C. Reaction mixtures (25 μL) contained a final concentration of 1 μM test compound, 0.5 mg/mL liver microsomes protein, and 1 mM NADPH and/or 1 mM UDPGA (with alamethicin) in 100 mM potassium phosphate, pH 7.4 buffer with 3 mM MgCl2. The incubation was done with N=1, but duplicate incubation at each time point can be prepared if necessary. At each of the time points (for example, 0, 15, 30, and 60 minutes), 150 μL of quench solution (100% acetonitrile with 0.1% formic acid) with internal standard was transferred to each well. Besides the zero minute controls, mixtures containing the same components except the NADPH can also be prepared as the negative control. Verapamil was included as a positive control to verify assay performance. Plates were sealed, vortexed, and centrifuged at 4° C. for 15 minutes at 4000 rpm. The supernatant is transferred to fresh plates for LC/MS/MS analysis.
(§3) Summarized conditions: [Compound]=1 μM, [LM]=0.5 mg/mL, [NADPH]=1 mM and/or [UDPGA]=1 mM, Buffer=100 mM Potassium Phosphate, pH 7.4 with 3 mM MgCl2, Time=0, 15, 30, and 60 min, and Temperature=37° C.
(§4) All samples were analyzed on LC/MS/MS using an AB Sciex API 4000 instrument, coupled to a Shimadzu LC-20AD LC Pump system. Analytical samples were separated using a Waters Atlantis T3 dC18 reverse phase HPLC column (20 mm×2.1 mm) at a flow rate of 0.5 mL/min. The mobile phase consisted of 0.1% formic acid in water (solvent A) and 0.1% formic acid in 100% acetonitrile (solvent B).
(§5) The extent of metabolism is calculated as the disappearance of the test compound, compared to the 0-min time incubation. Initial rates are calculated for the compound concentration and used to determine half-life (t½).

androgen receptor (AR) = molecular target: T1, androgen receptor (AR) (Homo sapiens, UniProt P10275, T878A); assay: Androgen-induced PSA (6.1 kb)-luciferase reporter assay in LNCaP cells (R1881 1 nM); type: cell-based; design: endogenous in cells; host or cells: LNCaP; conditions: 24 h, read-out: PSA-Luc IC50 Range
T1 sequence (P10275 1-920 T878A): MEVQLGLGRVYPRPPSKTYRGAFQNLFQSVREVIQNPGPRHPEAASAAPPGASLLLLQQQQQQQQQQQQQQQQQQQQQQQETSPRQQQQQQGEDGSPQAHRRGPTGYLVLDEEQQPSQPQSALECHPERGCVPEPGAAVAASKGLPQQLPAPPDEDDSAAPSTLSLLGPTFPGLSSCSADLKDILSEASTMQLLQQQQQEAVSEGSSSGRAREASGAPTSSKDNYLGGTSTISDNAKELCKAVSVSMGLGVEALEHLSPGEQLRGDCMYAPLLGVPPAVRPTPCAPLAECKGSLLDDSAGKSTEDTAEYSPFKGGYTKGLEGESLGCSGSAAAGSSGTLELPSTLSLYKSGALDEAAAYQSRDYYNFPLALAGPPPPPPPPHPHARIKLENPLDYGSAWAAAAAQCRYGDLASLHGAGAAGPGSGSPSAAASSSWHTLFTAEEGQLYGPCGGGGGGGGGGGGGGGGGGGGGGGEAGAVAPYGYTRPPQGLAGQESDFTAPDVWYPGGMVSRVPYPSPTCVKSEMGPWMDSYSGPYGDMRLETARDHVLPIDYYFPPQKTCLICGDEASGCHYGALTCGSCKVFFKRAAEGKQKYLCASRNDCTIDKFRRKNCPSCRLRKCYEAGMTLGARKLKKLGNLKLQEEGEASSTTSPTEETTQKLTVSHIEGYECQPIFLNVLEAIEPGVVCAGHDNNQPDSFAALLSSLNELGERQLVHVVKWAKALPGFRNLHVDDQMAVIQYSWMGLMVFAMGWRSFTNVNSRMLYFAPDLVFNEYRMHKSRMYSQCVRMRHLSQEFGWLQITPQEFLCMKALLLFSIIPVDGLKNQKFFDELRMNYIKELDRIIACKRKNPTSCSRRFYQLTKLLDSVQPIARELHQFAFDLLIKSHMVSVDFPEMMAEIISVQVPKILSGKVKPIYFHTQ
Method in brief: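 LNCaP cells transiently transfected with PSA (6.1 kb)-luciferase for 24 h, pretreated 1 h with compound or DMSO, then stimulated with 1 nM R1881 for 24 h. Firefly luciferase in lysates normalized to protein content; IC50 relative to R1881-induced vehicle activity.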

[2] = Microsomal stability assay, liver microsome half-life (rat); type: in vitro ADME; conditions: pH 7.4; rat liver microsomes 0.5 mg/mL, 1 μM compound, 37° C.; read-out: Liver microsome T1/2 Rat
From the text: as §1, §2, §3, §4
(§6) The extent of metabolism is calculated as the disappearance of the test compound, compared to the 0-min time incubation. Initial rates are calculated for the compound concentration and used to determine half-life (t½). […]

[3] = Microsomal stability assay, liver microsome half-life (monkey); type: in vitro ADME; conditions: pH 7.4; monkey liver microsomes 0.5 mg/mL, 1 μM compound, 37° C.; read-out: Liver microsome T1/2 Monkey
From the text: as §1, §2, §3, §4, §5

[4] = Microsomal stability assay, liver microsome half-life (mouse); type: in vitro ADME; conditions: pH 7.4; mouse liver microsomes 0.5 mg/mL, 1 μM compound, 37° C.; read-out: Liver microsome T1/2 Mouse
From the text: as §1, §2, §3, §4, §6

[5] = Microsomal stability assay, liver microsome half-life (human); type: in vitro ADME; conditions: pH 7.4; human liver microsomes 0.5 mg/mL, 1 μM compound, 37° C.; read-out: Liver microsome T1/2 Human
From the text: as §1, §2, §3, §4, §6

COc1c(Cl)cc(C(C)(C)c2ccc(-c3ccc4nc(NS(C)(=O)=O)cnc4c3)cc2)cc1C#N [Compound A269]
half-life at 1 μM [1]: 1.32 h | pIC50 (androgen receptor (AR)): < 5.70 | half-life at 1 μM [2]: > 2 h | half-life at 1 μM [3]: > 2 h | half-life at 1 μM [4]: > 2 h | half-life at 1 μM [5]: > 2 h

CS(=O)(=O)Nc1ncc2cc(-c3ccc(Oc4cc(Cl)c(OCCCl)c(C#N)c4)cc3)ccc2n1 [Compound A116, N-(6-(4-(3-chloro-4-(2-chloroethoxy)-5-cyanophenoxy)phenyl)quinazolin-2-yl)methanesulfonamide]
half-life at 1 μM [1]: > 2 h | pIC50 (androgen receptor (AR)): 5.70 to 6.30 | half-life at 1 μM [2]: > 2 h | half-life at 1 μM [3]: > 2 h | half-life at 1 μM [4]: > 2 h | half-life at 1 μM [5]: > 2 h

CC(C)(c1ccc(OCc2cnc(NS(C)(=O)=O)nc2N2CCOCC2)cc1)c1cc(Cl)c(OCCCl)c(C#N)c1 [Compound A100]
half-life at 1 μM [1]: > 2 h | pIC50 (androgen receptor (AR)): > 6.30 | half-life at 1 μM [2]: 0.85 h | half-life at 1 μM [3]: 0.633 h | half-life at 1 μM [4]: 1.6 h | half-life at 1 μM [5]: > 2 h

CC(C)(c1ccc(OCc2ccnc(NS(C)(=O)=O)c2F)cc1)c1cc(Cl)c(OCCCl)c(C#N)c1 [Compound A48]
half-life at 1 μM [1]: > 2 h | pIC50 (androgen receptor (AR)): 5.70 to 6.30 | half-life at 1 μM [2]: > 2 h | half-life at 1 μM [3]: > 2 h | half-life at 1 μM [4]: > 2 h | half-life at 1 μM [5]: > 2 h

CC(C)(c1ccc(OCc2ccnc(NS(C)(=O)=O)n2)cc1)c1cc(F)c(N2CCOCC2)c(C#N)c1 [Compound A262]
half-life at 1 μM [1]: > 2 h | pIC50 (androgen receptor (AR)): 5.70 to 6.30 | half-life at 1 μM [2]: 1.63 h | half-life at 1 μM [3]: 0.85 h | half-life at 1 μM [4]: > 2 h | half-life at 1 μM [5]: > 2 h

CS(=O)(=O)NC1CCN(Cc2ccc3c(ccn3-c3cc(Cl)c(OCCCl)c(C#N)c3)c2)CC1(F)F (centres unmarked) [Compound A239]
half-life at 1 μM [1]: > 2 h | pIC50 (androgen receptor (AR)): 5.70 to 6.30 | half-life at 1 μM [2]: > 2 h | half-life at 1 μM [3]: 0.65 h | half-life at 1 μM [4]: > 2 h | half-life at 1 μM [5]: 1.88 h

CC(C)(c1ccc(-c2ccn3nc(NS(C)(=O)=O)nc3c2)cc1)c1cc(Cl)c(OCCCl)c(C#N)c1 [Compound A113]
half-life at 1 μM [1]: > 2 h | pIC50 (androgen receptor (AR)): 5.70 to 6.30 | half-life at 1 μM [2]: > 2 h | half-life at 1 μM [3]: > 2 h | half-life at 1 μM [4]: > 2 h | half-life at 1 μM [5]: 1.93 h

CS(=O)(=O)NC1CCN(Cc2ccc3c(ccn3-c3cc(Cl)c(OCCCl)c(C#N)c3)c2)CC1 [Compound A169]
half-life at 1 μM [1]: > 2 h | pIC50 (androgen receptor (AR)): < 5.70 | half-life at 1 μM [2]: > 2 h | half-life at 1 μM [3]: > 2 h | half-life at 1 μM [4]: > 2 h | half-life at 1 μM [5]: > 2 h

CC(Oc1ccc2c(ccn2-c2cc(Cl)c(OCCCl)c(C#N)c2)c1)C12CC(NS(C)(=O)=O)(C1)C2 (centres unmarked) [Compound A180]
half-life at 1 μM [1]: 0.967 h | pIC50 (androgen receptor (AR)): 5.70 to 6.30 | half-life at 1 μM [2]: > 2 h | half-life at 1 μM [3]: 0.75 h | half-life at 1 μM [4]: > 2 h | half-life at 1 μM [5]: > 2 h

CNC(=O)c1ccc(N2C(=S)N(c3ccc(C#N)c(C(F)(F)F)c3)C(=O)C2(C)C)cc1F [Enzalutamide, enzalutamide, reference compound]
half-life at 1 μM [1]: > 2 h | half-life at 1 μM [2]: > 2 h | half-life at 1 μM [3]: > 2 h | half-life at 1 μM [4]: > 2 h | half-life at 1 μM [5]: > 2 h

CS(=O)(=O)Nc1nccc(COc2ccc3c(c2)CCC=C3c2cc(Cl)c(OCCCl)c(C#N)c2)n1 [Compound A32, N-(4-(((5-(3-chloro-4-(2-chloroethoxy)-5-cyanophenyl)-7,8-dihydronaphthalen-2-yl)oxy)methyl)pyrimidin-2-yl)methanesulfonamide]
pIC50 (androgen receptor (AR)): 5.70 to 6.30 | half-life at 1 μM [4]: > 2 h | half-life at 1 μM [5]: 1.14 h

CS(=O)(=O)Nc1nccc(COc2nnc(-c3cc(Cl)c(OCCCl)c(C#N)c3)s2)n1 [Compound A41]
pIC50 (androgen receptor (AR)): < 5.70 | half-life at 1 μM [4]: > 2 h | half-life at 1 μM [5]: > 2 h

CS(=O)(=O)Nc1nccc(COc2ccc3c(-c4cc(Cl)c(OCCCl)c(C#N)c4)cccc3c2)n1 [Compound A34, N-(4-(((5-(3-chloro-4-(2-chloroethoxy)-5-cyanophenyl)naphthalen-2-yl)oxy)methyl)pyrimidin-2-yl)methanesulfonamide]
pIC50 (androgen receptor (AR)): 5.70 to 6.30 | half-life at 1 μM [4]: > 2 h | half-life at 1 μM [5]: > 2 h
